Like-named read-outs stand apart in the source and are kept apart here.
Assays:
[1] = molecular target: T1, CIB1 and αIIb interaction (CIB1-GST : F-αIIb peptide) (Homo sapiens, UniProt Q99828); experiment: FP assay, 1536-well qHTS format (primary and confirmatory screen); format: binding; conditions: for CONFIRMATORY SCREEN Curve Class / Curve Class (confirmatory screen): qHTS curve class
T1 construct: made in house; host or cells: BL-21 plus RIL cells (E. coli)
T1 sequence (Q99828 1-191): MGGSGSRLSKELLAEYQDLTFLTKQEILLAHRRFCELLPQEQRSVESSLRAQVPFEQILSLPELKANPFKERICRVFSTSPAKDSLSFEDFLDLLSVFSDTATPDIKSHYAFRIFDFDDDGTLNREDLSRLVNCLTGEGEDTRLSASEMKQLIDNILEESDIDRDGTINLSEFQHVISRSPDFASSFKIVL

[2] = molecular target: T2, GST-CIB1 : F-scrambled peptide (Homo sapiens, UniProt Q99828); experiment: FP scrambled-peptide counter screen, 1536-well format; format: binding; conditions: for COUNTERSCREEN Confirm?: YES/NO call; for COUNTERSCREEN Curve Class / Curve Class (counterscreen): qHTS curve class; for Confirm? (counterscreen): YES/NO
T2 construct: made in house; host or cells: BL-21 plus RIL cells (E. coli)
T2 sequence (Q99828 1-191): T1 sequence (Q99828 1-191)

[3] = confirmatory screen, YES/NO call
[4] = confirmatory screen, negative sign = inhibitory curve
[5] = confirmatory screen, negative = inhibition
[6] = confirmatory screen, read-out: CONFIRMATORY SCREEN IC50
[7] = qHTS primary screen hits, Table S2, negative = inhibition
[8] = qHTS primary screen hits, Table S2, negative sign = inhibitory curve, several classes where COUNT > 1
[9] = qHTS primary screen hits, Table S2, read-out: IC50
[10] = scrambled-peptide counterscreen
[11] = confirmatory screen, read-out: IC50 [μM] (confirmatory screen)
[12] = counterscreen, negative sign = inhibitory curve
[13] = counterscreen, read-out: IC50 [μM] (counterscreen)
[14] = qHTS FP screen hits, Table S2, negative = inhibition
[15] = qHTS FP screen hits, Table S2, one class per curve where COUNT > 1, negative sign = inhibitory curve
[16] = qHTS FP screen hits, Table S2, read-out: IC50
[17] = Table S3, confirmatory screen, a negative sign marks inhibitory curves
[18] = Table S3, confirmatory screen, negative = inhibition
[19] = Table S3, counterscreen, a negative sign marks inhibitory curves
[20] = Table S3, counterscreen, negative = inhibition
[21] = Table S3, confirmatory screen, YES/NO call
[22] = Table S3, confirmatory screen, read-out: IC50 [μM] (confirmatory screen)
[23] = Table S3, counterscreen, read-out: IC50 [μM] (counterscreen)

SMILES	Efficacy (%) (confirmatory screen) ([1]; confirmatory screen)	Confirm? (confirmatory screen) ([1]; confirmatory screen, YES/NO)	Curve Class (confirmatory screen) [1, 4]	IC50 [1, 11]	Efficacy (%) (counterscreen) ([2]; counterscreen)	Curve Class (counterscreen) [2, 12]	IC50 [2, 13]	Efficacy (%) [1, 14]	Curve Class [1, 15]	IC50 [1, 16]	other results
CC(=O)Oc1cccc2c1C(=O)c1c(OC(C)=O)cc(C(=O)O)cc1C2=O [NCGC00018274-05]											CONFIRMATORY SCREEN Confirm? [1, 3]: YES; CONFIRMATORY SCREEN Curve Class [1, 4]: -1.4; CONFIRMATORY SCREEN Efficacy (%) [1, 5]: -50%; IC50 [1, 6]: 11.2 µM; Efficacy (%) [1, 7]: -39%; Curve Class [1, 8]: -2.4; IC50 [1, 9]: 39.8 µM; COUNTERSCREEN Efficacy (%) [2, 10]: -53%; COUNTERSCREEN Confirm? [2, 10]: YES; COUNTERSCREEN Curve Class [2, 10]: -2.4; IC50 ([2]; scrambled-peptide counterscreen, read-out: COUNTERSCREEN IC50): 50.1 µM
CC[C@@H](CO)NC(=O)[C@@H]1C=C2c3cccc4c3c(cn4C)C[C@H]2N(C)C1.O=C(O)/C=C\C(=O)O [NCGC00024027-06]	-88%	YES	-2.2	44.7 µM	-73%	-3	89.1 µM				
CN(C)CCCn1cc(C2=C(c3c[nH]c4ccccc34)C(=O)NC2=O)c2ccccc21 [NCGC00024760-07]	-63%	YES	-2.2	44.7 µM	-54%	-2.2	35.5 µM	-53%	-2.2	39.8 µM	
CN1CCc2cccc3c2[C@H]1Cc1ccc(O)c(O)c1-3 [NCGC00025349-05]											Curve Class (confirmatory screen) [1, 17]: 4; Efficacy (%) (confirmatory screen) [1, 18]: -17%; Efficacy (%) [1, 7]: -58%; Curve Class [1, 8]: -2.4; IC50 [1, 9]: 12.6 µM; Curve Class (counterscreen) [2, 19]: 4; Efficacy (%) (counterscreen) [2, 20]: -34%
CCOC(=O)c1cc(-c2ccco2)nc2c1c(C)nn2CCC#N.O=C(O)C(F)(F)F [NCGC00037529-03]	-61%	YES	-2.2	50.1 µM	-56%	-2.4	56.2 µM	-27%		39.8 µM	
CCOC(=O)c1c(-c2ccc(C)o2)csc1NC(=O)CSc1nnnn1-c1ccccc1.O=C(O)C(F)(F)F [NCGC00041785-02]	-47%	YES	-2.2	39.8 µM	-23%	4					Efficacy (%) [1, 7]: -58%; Curve Class [1, 8]: -1.2; IC50 [1, 9]: 28.2 µM; Confirm? (counterscreen) ([2]; counterscreen): YES
CC(=O)NC(Cc1ccccc1)C(=O)O (centres unmarked) [NCGC00042134-05]								-47%	-2.2	100 µM	Curve Class (confirmatory screen) [1, 17]: 4; Efficacy (%) (confirmatory screen) [1, 18]: 0%; Curve Class (counterscreen) [2, 19]: 4; Efficacy (%) (counterscreen) [2, 20]: -35%
CCOC(=O)c1nn(-c2ccc(OC)cc2)c(=O)c2c(N)scc12 [NCGC00053250-03]	-69%	YES	-2.4	70.8 µM	-59%	-2.2	20 µM	-56%	-1.2	39.8 µM	
COP(=S)(OC)SCN1C(=O)c2ccccc2C1=O [NCGC00080392-05]	-50%	YES	-2.2	50.1 µM	-33%	-2.4	44.7 µM	-50%	-1.2	17.8 µM	
O=C(O)c1cc(/N=N/c2ccc(S(=O)(=O)Nc3ccccn3)cc2)ccc1O [NCGC00090903-09]											Confirm? (confirmatory screen) [1, 21]: YES; Curve Class (confirmatory screen) [1, 17]: -1.2; Efficacy (%) (confirmatory screen) [1, 18]: -64%; IC50 [1, 22]: 22.4 µM; Curve Class (counterscreen) [2, 19]: -2.2; Efficacy (%) (counterscreen) [2, 20]: -61%; IC50 [2, 23]: 39.8 µM
CC(=O)[O][Hg][c]1ccccc1 [NCGC00091050-09]											Curve Class (confirmatory screen) [1, 17]: 4; Efficacy (%) (confirmatory screen) [1, 18]: 41%; Efficacy (%) [1, 7]: -59%; Curve Class [1, 8]: -1.2; IC50 [1, 9]: 7.9 µM; Curve Class (counterscreen) [2, 19]: 2.3; Efficacy (%) (counterscreen) [2, 20]: 145%
COc1cc([C@H]2Oc3cc([C@H]4Oc5cc(O)cc(O)c5C(=O)[C@@H]4O)ccc3O[C@@H]2CO)ccc1O [NCGC00091057-05]											CONFIRMATORY SCREEN Efficacy (%) ([1]; confirmatory screen): -30%; CONFIRMATORY SCREEN Curve Class ([1]; confirmatory screen): 4; COUNTERSCREEN Efficacy (%) ([2]; counterscreen): 0%; COUNTERSCREEN Curve Class ([2]; counterscreen): 4
Nc1ccc(O)c([N+](=O)[O-])c1 [NCGC00091261-03]	-127%	YES	-1.1	50.1 µM	-105%	-2.1	63.1 µM	-59%	-2.2	113 µM	
Oc1ccc(Cl)cc1Cc1cc(Cl)ccc1O [NCGC00091325-09]	-77%	YES	-2.2	44.7 µM	-38%	-1.2	10 µM	-86%	-2.2	79.4 µM	
CN(C)C(=S)SSC(=S)N(C)C [NCGC00091563-12]								-71%	-2.2		IC50 ([1]; IC50 [μM]): 39.8 µM; CONFIRMATORY SCREEN Confirm? [1, 3]: YES; CONFIRMATORY SCREEN Curve Class [1, 4]: -1.2; CONFIRMATORY SCREEN Efficacy (%) [1, 5]: -67%; IC50 [1, 6]: 7.1 µM; COUNTERSCREEN Efficacy (%) [2, 10]: 14%; COUNTERSCREEN Confirm? [2, 10]: YES; COUNTERSCREEN Curve Class [2, 10]: 4
CCCC(=O)c1cc(O)c(O)cc1O [NCGC00091839-03]	-145%	YES	-1.1	35.5 µM	-107%	-1.1	31.6 µM	-92%		105 µM	
CCOC(=O)CC(SP(=S)(OC)OC)C(=O)OCC (centres unmarked) [NCGC00091902-08]	-93%	YES	-2.2	100 µM	-27%	-1.4	20 µM	-52%	-2.2	119 µM	Confirm? (counterscreen) ([2]; counterscreen): YES
NC(=O)c1ncn([C@@H]2O[C@H](CO)[C@@H](O)[C@H]2O)c1O [NCGC00094087-05]											CONFIRMATORY SCREEN Efficacy (%) ([1]; confirmatory screen): -5.43%; CONFIRMATORY SCREEN Curve Class ([1]; confirmatory screen): 4; Efficacy (%) [1, 7]: -52%; Curve Class [1, 8]: -1.2; IC50 [1, 9]: 20 µM; COUNTERSCREEN Efficacy (%) ([2]; counterscreen): 0%; COUNTERSCREEN Curve Class ([2]; counterscreen): 4
C[C@H](Cc1ccc(O)c(O)c1)[C@@H](C)Cc1ccc(O)c(O)c1 [NCGC00094201-01]	-95%	YES	-2.2	39.8 µM	-68%	-1.2	12.6 µM				Efficacy (%) [1, 7]: -32%; Curve Class [1, 8]: -2.4; IC50 [1, 9]: 27.1 µM
NC[C@@H](O)c1ccc(O)c(O)c1.O=C(O)C(O)C(O)C(=O)O [NCGC00094737-04]	-31%	YES	-3	44.7 µM	82%	3	100 µM				Confirm? (counterscreen) ([2]; counterscreen): YES
O=C1c2ccccc2C(=O)c2c1ccc(O)c2O [NCGC00095227-06]								-161%	-2.1	35.5 µM	Confirm? (confirmatory screen) [1, 21]: YES; Curve Class (confirmatory screen) [1, 17]: -1.1; Efficacy (%) (confirmatory screen) [1, 18]: -175%; IC50 [1, 22]: 17.8 µM; Curve Class (counterscreen) [2, 19]: -2.1; Efficacy (%) (counterscreen) [2, 20]: -195%; IC50 [2, 23]: 22.4 µM
Cc1coc2c1C(=O)C(=O)c1c-2ccc2c1CCCC2(C)C [NCGC00095709-08]								-65%	-2.2	79.4 µM	Confirm? (confirmatory screen) [1, 21]: YES; Curve Class (confirmatory screen) [1, 17]: -1.2; Efficacy (%) (confirmatory screen) [1, 18]: -67%; IC50 [1, 22]: 39.8 µM; Curve Class (counterscreen) [2, 19]: -2.2; Efficacy (%) (counterscreen) [2, 20]: -67%; IC50 [2, 23]: 39.8 µM
